Among the data in US8546381B2, “Bridged heterocyclic compounds and methods of use” (Medivation Technologies, Inc., priority 2008, dated 2013) are inhibition values, retold here.

This test deals with T1, rat adrenergic α1A receptor (Rattus norvegicus, UniProt P43140).
T1 construct: obtained from Wistar Rat submaxillary glands; from tissue; host or cells: Wistar rat submaxillary glands
T1 sequence (P43140 1-466): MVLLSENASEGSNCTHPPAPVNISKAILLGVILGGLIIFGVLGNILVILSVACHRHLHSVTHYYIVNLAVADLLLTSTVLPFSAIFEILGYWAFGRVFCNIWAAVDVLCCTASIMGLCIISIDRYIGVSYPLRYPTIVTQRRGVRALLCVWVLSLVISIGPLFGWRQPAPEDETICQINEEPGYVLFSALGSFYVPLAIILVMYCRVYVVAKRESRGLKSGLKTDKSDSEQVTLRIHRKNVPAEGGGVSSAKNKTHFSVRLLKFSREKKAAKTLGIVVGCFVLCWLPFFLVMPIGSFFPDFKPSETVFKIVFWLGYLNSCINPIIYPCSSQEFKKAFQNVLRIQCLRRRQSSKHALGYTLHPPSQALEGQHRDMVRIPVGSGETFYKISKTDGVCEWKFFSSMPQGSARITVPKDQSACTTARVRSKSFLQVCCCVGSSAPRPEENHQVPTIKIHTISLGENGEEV
The test is described as follows: Adrenergic α1A radioligand binding ([3H]Prozosin). The conditions noted are these: for inhibition at 1 µM: read-out: Adrenergic α1A, inhibition of ligand binding (1 μM). The procedure: To evaluate in radioligand binding assays the activity of compounds of the invention, rat adrenergic α1A receptor obtained from Wistar Rat submaxillary glands (Michel, A. D. et al., Br. J. Pharmacol. 98:883, 1989) in a modified Tris-HCl buffer (50 mM Tris-HCl buffer, pH 7.4, 0.5 mM EDTA) was used. Compounds of the invention were incubated with 0.25 nM [^3H]Prozosin for 60 minutes at 25° C. Non-specific binding was estimated in the presence of 10 μM phentolamine. Receptor proteins were filtered and washed, the filters were then counted to determine [^3H]Prozosin specifically bound. Compounds of the invention were screened at 1 μM or lower, using 1% DMSO as vehicle. Compounds of the invention were tested in this biochemical assay and percent inhibition of specific binding was determined.

For orientation: inhibition means how much of the control response was suppressed. Take `Cc1ccc2c(c1)c1c(n2CCc2ccccc2)CC2CCCC1N2C` (stereo not drawn) [Compound 56]: the inhibition at 1 µM is 94%.

As to `CN1C2CCC1c1c(n(CCc3ccc(F)cc3)c3ccc(Cl)cc13)C2` (stereo not drawn) [Compound 57], the inhibition at 1 µM is 90%.

With `Cc1ccc2c(c1)c1c(n2CCc2ccccc2)CC2CCC1N2C` (stereo not drawn) [Compound 2], the inhibition at 1 µM was 98%. Where the note is “read-out: Adrenergic α1A, inhibition of ligand binding (0.03 μM)”, the inhibition at 0.03 µM turned out to be 66%. Moreover, the inhibition at 0.3 µM (read-out: Adrenergic α1A, inhibition of ligand binding (0.3 μM)) worked out at 97%.

Take `CN1C2CCC1c1c(n(CCc3ccc(Cl)cc3)c3ccc(Cl)cc13)C2` (stereo not drawn) [Compound 58]: the inhibition at 1 µM was 89%.
